Consider two compounds from publication PMC4445981, “The glutamate transport inhibitor DL-Threo-β-Benzyloxyaspartic acid (DL-TBOA) differentially affects SN38- and oxaliplatin-induced death of drug-resistant colorectal cancer cells” (BMC Cancer, 2015).

Read-outs that look alike come from different tables or passages of the source.

The subject of assay [1] is [3H]-D-Asp uptake (glutamate transporter activity) in HCT116-PAR cells. As to the kind of experiment: [3H]-D-Asp uptake assay, HCT116-PAR. It is filed as cell-based, human. As to the method:
(§1) We therefore next determined glutamate transporter activity (as uptake of the substrate [^3H]-D-Asp following a 6-min incubation in buffer supplemented with a tracer concentration of 100 nM [^3H]-D-Asp). […] To determine which transporter(s) was responsible for the [^3H]-D-Asp uptake, we assessed the effect of DL-TBOA, a nonselective inhibitor of EAATs, and UCPH-101, a specific SLC1A3 inhibitor [16, 28, 29]. […] Basal [^3H]-D-Asp uptake was decreased by about 60 % in SN38-resistant compared to parental HCT116 cells, whereas that in SN38-resistant LoVo cells was nearly tripled compared to parental LoVo cells.
(§2) The [^3H]-D-Asp uptake assay was performed essentially as in [30]. Briefly, cells were split into poly-D-lysine-coated white 96-well plates (PerkinElmer). A similar number of cells were seeded for HCT116 parental, HCT116-SN38 and HCT116-Oxa cell lines (7 × 10^4 cells/well) and LoVo parental, Lovo-SN38 and Lovo-Oxa cell lines (6 × 10^4 cells/well). 16–24 h later, culture medium was aspirated, and cells were washed once with 100 μl assay buffer (Hank’s Buffered Saline Solution supplemented with 20 mM HEPES, 1 mM CaCl2 and 1 mM MgCl2, pH 7.4). 50 μl assay buffer supplemented with 100 nM [^3H]-D-Asp and test compounds as indicated was added, and the plate was incubated at 37 °C for 6 min. Non-specific [^3H]-D-Asp uptake was determined in wells with 3 mM L-glutamate. The assay mixture was quickly removed, and wells were washed with 2 × 100 μl ice-cold assay buffer, followed by 150 μl Microscint™20 scintillation fluid (PerkinElmer). The plate was shaken for 1 h and counted in a Wallac 1450 MicroBeta Trilux scintillation counter (GMI, Ramsey, MN).

Assay [2] concerns [3H]-D-Asp uptake (glutamate transporter activity) in HCT116-SN38 cells. Description: [3H]-D-Asp uptake assay, HCT116-SN38. It is filed as cell-based, human. As to the method: as §1, §2
Assay [3] deals with [3H]-D-Asp uptake (glutamate transporter activity) in HCT116-Oxa cells. Description: [3H]-D-Asp uptake assay, HCT116-Oxa. In kind it is cell-based, human. As to the method:
as §1, §2

For assay [4], the system named is [3H]-D-Asp uptake (glutamate transporter activity) in LoVo-PAR cells. As to the kind of experiment: [3H]-D-Asp uptake assay, LoVo-PAR. It is filed as cell-based, human. As to the method: as §1, §2
Assay [5] has as its system [3H]-D-Asp uptake (glutamate transporter activity) in LoVo-SN38 cells. Description: [3H]-D-Asp uptake assay, LoVo-SN38. It is filed as cell-based, human. As to the method: as §1, §2
Assay [6] deals with [3H]-D-Asp uptake (glutamate transporter activity) in LoVo-Oxa cells. As to the kind of experiment: [3H]-D-Asp uptake assay, LoVo-Oxa. It is filed as cell-based, human. As to the method:
as §1, §2

Assay [7] concerns [3H]-D-Asp uptake in HCT116 and LoVo cells (parental and resistant). Description: [3H]-D-Asp uptake assay, summary over cell lines. It is filed as cell-based, human. As to the method: as §1, §2
The next assay deals with SLC1A1. As to conditions: at concentration up to > 400 fold higher than SLC1A3 IC50; cited from earlier work.
In the next assay the test system is SLC1A3. As to conditions: cited from earlier work.
[8] abbreviates: Homo sapiens, read-out: IC50, [3H]-D-Asp uptake.
The mark [9] stands for this setting: Homo sapiens, read-out: pIC50 ± S.E.M., [3H]-D-Asp uptake (converted).

As to `N[C@@H](CCC(=O)O)C(=O)O` [L-Glu, L-glutamate], the IC50 in assay [1] (setting [8]) is 21 µM; in assay [1] (setting [9]), 21.4 µM; in assay [2] (setting [8]), 21 µM; in [2] (setting [9]), 21.4 µM; in assay [3] (setting [8]), 21 µM; in assay [3] (setting [9]), 21.4 µM. For the same compound, the IC50 was 26 µM in assay [4] (setting [8]); 25.7 µM in assay [4] (setting [9]); 28 µM in assay [5] (setting [8]); 28.8 µM in assay [5] (setting [9]); 23 µM in assay [6] (setting [8]); 22.9 µM in assay [6] (setting [9]). In assay [7] (Homo sapiens, read-out: IC50 values, competitive inhibition of [3H]-D-Asp uptake), the IC50 was in the range of 20 to 30 µM.

Take `COc1ccc(C2C(C#N)=C(N)OC3=C2C(=O)CC(c2cccc4ccccc24)C3)cc1` (stereo not shown) [UCPH]: the “pIC50 ± S.E.M., [3H]-D-Asp uptake” value in [1] (HCT116-PAR, 100 nM [3H]-D-Asp, 6 min, 37 °C) was under 4.0; in assay [2] (HCT116-SN38, 100 nM [3H]-D-Asp, 6 min, 37 °C) it was under 4.0; in assay [3] (HCT116-Oxa, 100 nM [3H]-D-Asp, 6 min, 37 °C), under 4.0; in [4] (LoVo-PAR, 100 nM [3H]-D-Asp, 6 min, 37 °C), under 4.0; in assay [5] (LoVo-SN38, 100 nM [3H]-D-Asp, 6 min, 37 °C), under 4.0; in assay [6] (LoVo-Oxa, 100 nM [3H]-D-Asp, 6 min, 37 °C) it was under 4.0. Further, the IC50 was over 100 µM in assay [1] (HCT116-PAR, 100 nM [3H]-D-Asp, 6 min, 37 °C, read-out: IC50, [3H]-D-Asp uptake); over 100 µM in assay [2] (HCT116-SN38, 100 nM [3H]-D-Asp, 6 min, 37 °C, read-out: IC50, [3H]-D-Asp uptake); over 100 µM in assay [3] (HCT116-Oxa, 100 nM [3H]-D-Asp, 6 min, 37 °C, read-out: IC50, [3H]-D-Asp uptake); over 100 µM in assay [4] (LoVo-PAR, 100 nM [3H]-D-Asp, 6 min, 37 °C, read-out: IC50, [3H]-D-Asp uptake); over 100 µM in assay [5] (LoVo-SN38, 100 nM [3H]-D-Asp, 6 min, 37 °C, read-out: IC50, [3H]-D-Asp uptake); over 100 µM in assay [6] (LoVo-Oxa, 100 nM [3H]-D-Asp, 6 min, 37 °C, read-out: IC50, [3H]-D-Asp uptake). Besides, the “effect on basal [3H]-D-Asp uptake” value in assay [7] (all cell lines, concentrations up to 100 μM) was “essentially unaffected”. The “activity at SLC1A1” value in the assay with SLC1A1 is “inactive”. Besides, the “IC50 values for SLC1A3” value in the assay with SLC1A3 is “high-nanomolar”.
